≈ marks a conversion by molar mass, not a printed value.
Assays:
Type in all cases: functional
[1] = tested on: Mycobacterium tuberculosis; assay: Antimycobacterial activity against extensively drug resistant Mycobacterium tuberculosis measured up to 2 weeks; details: 336 h, time weeks <=2
[2] = tested on: Mycobacterium tuberculosis; assay: Antimycobacterial activity against multidrug resistant Mycobacterium tuberculosis measured up to 2 weeks; details: 336 h, time weeks <=2
[3] = tested on: Mycobacterium tuberculosis; assay: Antimycobacterial activity against ethambutol/pyrazinamide/kanamycin/streptomycin/ofloxacin/moxifloxacin/levofloxacin resistant Mycobacterium tuberculosis measured up to 2 weeks; details: 336 h, time weeks <=2
[4] = tested on: Mycobacterium tuberculosis variant bovis BCG; assay: Antimycobacterial activity against Mycobacterium bovis BCG ATCC35743 by nitrate reductase assay
[5] = tested on: Mycobacterium tuberculosis variant bovis BCG; assay: Antimycobacterial activity against Mycobacterium bovis BCG ATCC 35734 measured on 12th day by nitrate reductase assay; details: ATCC 35734, 288 h, time 12 day

Row | Compound | MIC [5] [µg/mL] | further results
1 | O=C(O)CCCCCC1NC(=O)CS1 (stereo not drawn) |  | MIC [1]: 0.096 µM (≈ 0.0209 µg/mL); MIC [2]: 0.6 µM (≈ 0.13 µg/mL); MIC [3]: 0.2 µM (≈ 0.0435 µg/mL)
2 | O=C1NC(=S)S/C1=C\c1ccc([N+](=O)[O-])cc1 |  | IC90 [4]: 25.7 µg/mL (≈ 96.5 µM)
3 | O=C1CSC(c2ccc(OCc3cc4ccccc4n4nnnc34)cc2)N1c1ccccc1 (stereo not drawn) | 9.13 (≈ 20.1 µM) | 
4 | CCOc1ccc(N2C(=O)CSC2c2ccc(OCc3cc4ccccc4n4nnnc34)cc2)cc1 (stereo not drawn) | 7.09 (≈ 14.2 µM) | 
5 | NC(=O)c1cnccn1 [PYRAZINAMIDE] | 20 (≈ 162 µM) | 
6 | O=C1CSC(c2ccc(OCc3cc4ccccc4n4nnnc34)cc2)N1c1ccc([N+](=O)[O-])cc1 (stereo not drawn) | 3.8 (≈ 7.62 µM) | 

Source: ChEMBL document CHEMBL4813957, “Antitubercular properties of thiazolidin-4-ones - A review” (Eur J Med Chem, 2021)
